The target in one test is T1, 5-lipoxygenase (Cavia porcellus, UniProt A0A286X958).
T1 construct: 0.2 ml of the supernatant obtained from the PMNL sonicate; endogenous in cells; host or cells: casein-elicited guinea pig peritoneal polymorphonuclear leukocytes (PMNL), sonicate, 30,000 x g supernatant
T1 sequence (A0A286X958 1-674): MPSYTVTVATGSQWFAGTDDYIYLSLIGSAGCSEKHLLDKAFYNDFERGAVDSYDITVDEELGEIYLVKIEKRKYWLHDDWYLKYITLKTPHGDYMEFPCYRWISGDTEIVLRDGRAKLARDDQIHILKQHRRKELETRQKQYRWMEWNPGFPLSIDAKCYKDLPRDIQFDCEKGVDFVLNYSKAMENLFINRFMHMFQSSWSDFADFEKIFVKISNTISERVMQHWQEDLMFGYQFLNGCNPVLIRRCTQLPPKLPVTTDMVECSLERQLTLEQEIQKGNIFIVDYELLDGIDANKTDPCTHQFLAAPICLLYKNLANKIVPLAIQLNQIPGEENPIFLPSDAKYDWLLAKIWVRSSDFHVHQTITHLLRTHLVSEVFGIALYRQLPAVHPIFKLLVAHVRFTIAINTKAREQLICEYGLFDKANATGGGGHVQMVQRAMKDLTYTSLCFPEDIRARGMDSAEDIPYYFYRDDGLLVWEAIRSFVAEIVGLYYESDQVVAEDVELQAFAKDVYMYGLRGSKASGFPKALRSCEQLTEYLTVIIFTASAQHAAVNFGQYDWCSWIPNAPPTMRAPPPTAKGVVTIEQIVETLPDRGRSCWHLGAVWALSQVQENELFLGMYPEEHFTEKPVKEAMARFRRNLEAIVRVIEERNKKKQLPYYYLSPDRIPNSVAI
Kind of test: 5-Lipoxygenase (5-LO) Assay: 5-HETE formation in supernatant of guinea pig PMNL sonicate. In kind it is biochemical. Here is the method: Ten milliliters of a 2% casein solution is injected intraperitoneally to guinea pigs weighing 250-300 gm. After 16-18 hours, the guinea pigs are killed by suffocation in a carbon dioxide chamber. The peritoneal cavity is infused with 70 ml of saline and 40-50 ml of the fluid is recovered from the cavity. After centrifugation, cell pellets are washed twice in Hank's balanced salt solution (HBSS) without calcium ion.
The cells are then suspended in 5 ml of sodium phosphate buffer, pH 7.1 containing 1 mM, ethylene diamine tetraacetic acid (EDTA), and 0.1% gelatin. About 20-30×10^7 cells are obtained from one guinea pig.
The PMNL suspension is disrupted by five 1/2-second pulse sonication at the setting of 3 in a Branson Sonifier, Model 350, equipped with a microtip. The sonicates are combined and centrifuged at 30,000 ×g for 10 minutes. The supernatant is kept frozen at -70° C. until use.
Enzyme activity is determined by assaying for 5-hydroxy-6,8,11,14-eicosatetraenoic acid (5-HETE) formation by first incubating 0.2 ml of the supernatant obtained from the PMNL sonicate with the test compound, 1 mM CaCl2, 2 mM ATP, and 1 mM GSH for 5 minutes at 37° C. The mixture is treated with […] ^14 C-arachidonic acid and incubated at 37° C. an additional 10 minutes. The enzyme reaction is then stopped by the addition of 10 μl of 1M citric acid and 10 μl of an alcohol solution containing 20 mg/ml each of indomethacin and butylated hydroxyanisole (BHA). The reaction mixture is spotted (50 μl) on a silica gel plate (Baker TLC plate S1250-PA-19C) and subjected to TLC in a solvent system of ethyl acetate/2,2,4-trimethylpentane/glacialacetic acid/H2 O (90:50:20:100).
The radioactivity of the arachidonic acid and its metabolites (5-HETE and LTB4) is visualized from a developed x-ray film which had been exposed to the TLC plate 1-2 days. The amount of 5-HETE formed is quantitated by scraping the silica gel area corresponding to the spot on the x-ray film, and the radioactivity determined in a Isocap/300 liquid scintillation counter (Searle Analytic, Inc.).
The percent inhibition of the formation of 5-HETE is determined for each concentration of compound tested as compared to a control experiment wherein no test compound is added. The concentration and percent values are plotted on semi log paper and the concentration in which formation of 5-HETE is inhibited by 50% (IC50) is determined by interpolation.

Test [1] relates to polymorphonuclear leukocytes (PMNs). Kind of test: H-PMN Assay: LTB4 content of supernatant of A23187-stimulated human PMNs by radioimmunoassay. In kind it is cell-based. Conditions: Leukocyte, 10 min; Table II; human PMNs, calcium ionophore A23187, 37° C. for 10 minutes, LTB4 by radioimmunoassay. How it is done: Sodium citrated venous blood is drawn from normal human subjects. After centrifugation at 300 ×g for 15 minutes, the platelet-rich layer of plasma is discarded and an equal volume of Hanks' balanced salt solution (HBSS) is added to the enriched cell fraction. This platelet-depleted cell suspension is then layered on an equal volume of Ficoll-Paque. After centrifugation for 40 minutes at 300 ×g, the bottom layer containing erythrocytes and polymorphonuclear leukocytes (PMNs) is diluted with two volumes of a 0.2% methocel solution. The erythrocytes are sedimented upon standing for 15 minutes, and the supernatant containing the PMNs is aspirated and centrifuged at 300 ×g, for 5 minutes. The cell pellet is then exposed to 0.2% NaCl for 30 seconds to lyse any remaining erythrocytes, and the ionic strength of the suspension is readjusted to 0.9% with NaCl. The PMNs are recovered by centrifugation at 300 ×g for 5 minutes and are suspended in HBSS to a concentration of 2 ×10^6 cells/ml.
The test compounds are dissolved in and diluted with dimethylsulfoxide (DMSO) which also contains 2×10^-6 M of the calcium ionophore, A23187. To 1 ml of the PMN suspension, 10 μl of the DMSO solution is added, and the mixture is incubated at 37° C. for 10 minutes. The PMNs are rapidly pelleted in a microcentrifuge, and the supernatant is kept at -20° C. for future determination of LTB4 content via the radioimmunoassay.

The mark [2] stands for this setting: Table II, guinea pig PMNL sonicate supernatant, 14C-arachidonic acid, 37° C., read-out: 5-LO (concentration in which formation of 5-HETE is inhibited by 50%, IC50).
[3] abbreviates: second table (Table III), known hydroxamic acid derivatives as comparison, read-out: 5-Lo (IC50).

IC50 data for 31 molecules are collected here from patent US5028629A, “5-Lipoxygenase inhibitors” (Eli Lilly and Company, priority 1990, dated 1991).

Each structure is given as a SMILES string. Like-named read-outs stand apart in the source and are kept apart here.

On to `CSc1cc(CCCc2ccccc2)ccc1C=CC(=O)N(C)O` [Example 6, 2-methylthio-4-(3-phenylpropyl)-N-hydroxy-N-methylcinnamamide], for which the IC50 at 5-lipoxygenase (setting [2]) is 0.007 µM.

Turning to `CN(O)C(=O)C=Cc1ccccc1Cc1ccc(S(C)(=O)=O)cc1` [Example 15, 2-(4-methylsulfonylbenzyl)-N-hydroxy-N-methylcinnamamide], the IC50 at 5-lipoxygenase (setting [2]) was determined as 0.49 µM.

As to `CCCCSc1ccc(CCCc2ccccc2)cc1C=CC(=O)N(C)O` [Example 29, 2-n-butylthio-5-(3-phenylpropyl)-N-hydroxy-N-methylcinnamamide], the values for the IC50 (in test [1]; at 5-lipoxygenase (setting [2])) were 0.058 µM and 0.094 µM, respectively.

In the case of `CN(O)C(=O)C=Cc1ccc(S(C)(=O)=O)cc1Cc1ccccc1` [Example 12, 2-benzyl-4-methylsulfonyl-N-hydroxy-N-methylcinnamamide], on 5-lipoxygenase (setting [2]), the IC50 was 0.695 µM.

For the molecule `CCCCSc1ccccc1C=CC(=O)N(O)C(C)C` [Example 28, 2-n-butylthio-N-hydroxy-N-isopropylcinnamamide], the IC50 at 5-lipoxygenase (setting [2]) came to 0.008 µM.

For `CN(O)C(=O)C=Cc1cc(CCCc2ccccc2)ccc1[S+](C)[O-]` (stereo not shown) [Example 41, 2-methylsulfinyl-5-(3-phenylpropyl)-N-hydroxy-N-methylcinnamamide], the IC50 at 5-lipoxygenase (setting [2]) came to 0.16 µM.

In the case of `CN(O)C(=O)C=Cc1cc(CCCc2ccccc2)ccc1S(C)(=O)=O` [Example 42, 2-methylsulfonyl-5-(3-phenylpropyl)-N-hydroxy-N-methylcinnamamide], at 5-lipoxygenase (setting [2]), the IC50 turned out to be 0.304 µM.

On to `CCc1ccc(CCCc2ccccc2)cc1C(=O)N(C)O` [reference compound], for which the IC50 at 5-lipoxygenase (setting [3]) worked out at 0.55 µM.

For the molecule `CCCC[S+]([O-])c1ccccc1C=CC(=O)N(C)O` (stereo not shown) [Example 36, 2-n-butylsulfinyl-N-hydroxy-N-methylcinnamamide], at 5-lipoxygenase (setting [2]), the IC50 came to 2.44 µM.

`CSc1ccc(C=CC(=O)N(C)O)c(Cc2ccccc2)c1` [Example 13, 2-benzyl-4-methylthio-N-hydroxy-N-methylcinnamamide]: on 5-lipoxygenase (setting [2]), the IC50 was 0.023 µM.

Consider `CN(O)C(=O)C=Cc1ccccc1SC(C)(C)C` [Example 18, 2-tert-butylthio-N-hydroxy-N-methyl-cinnamamide], for which the IC50 at 5-lipoxygenase (setting [2]) was determined as 0.175 µM.

As for `CCCCCCc1ccc(S(C)(=O)=O)c(C=CC(=O)N(C)O)c1` [Example 9, 2-methylsulfonyl-5-n-hexyl-N-hydroxy-N-methylcinnamamide], the IC50 amounted to 0.259 µM in test [1] and 0.09 µM at 5-lipoxygenase (setting [2]).

In the case of `CN(O)C(=O)C=Cc1ccccc1CCCc1ccccc1` [Example 43, 2-(3-phenylpropyl)-N-hydroxy-N-methylcinnamamide], the IC50 came to 0.012 µM in test [1] and 0.06 µM on 5-lipoxygenase (setting [2]).

In the case of `CSc1ccc(Cc2ccccc2C=CC(=O)N(C)O)cc1` [Example 14, 2-(4-methylthiobenzyl)-N-hydroxy-N-methylcinnamamide], on 5-lipoxygenase (setting [2]), the IC50 is 0.031 µM.

Regarding `CN(O)C(=O)C=Cc1ccc(CCCc2ccccc2)cc1[S+](C)[O-]` (stereo not shown) [Example 32, 2-methylsulfinyl-4-(3-phenylpropyl)-N-hydroxy-N-methylcinnamamide], at 5-lipoxygenase (setting [2]), the IC50 came to 8.4 µM.

Take `CCCCSc1ccccc1C=CC(=O)N(C)O` [Example 33, 2-(n-butylthio)-N-hydroxy-N-methylcinnamamide]: the IC50 in test [1] turned out to be 0.022 µM; on 5-lipoxygenase (setting [2]) it was 0.047 µM.

Take `CCCCCCc1cccc(C=CC(=O)N(C)O)c1SC` [Example 17, 2-(methylthio)-3-n-hexyl-N-hydroxy-N-methylcinnamamide]: the IC50 in test [1] was 0.15 µM; at 5-lipoxygenase (setting [2]), 0.059 µM.

As to `CCc1ccc(CCCc2ccccc2)cc1C=CC(=O)N(C)O` [Example 30, 2-ethyl-5-(3-phenylpropyl)-N-hydroxy-N-methylcinnamamide], the results for the IC50 (in test [1]; on 5-lipoxygenase (setting [2])) were 0.046 µM and 0.059 µM, respectively.

In the case of `CN(O)C(=O)C=Cc1ccccc1SCCCC(F)(F)F` [Example 5, 2-[1-(3-trifluoromethylpropyl)thio]-N-hydroxy-N-methylcinnamamide], the IC50 is 0.024 µM in test [1] and 0.032 µM on 5-lipoxygenase (setting [2]).

For the molecule `CN(O)C(=O)C=Cc1ccccc1SCCc1ccccc1` [Example 25, 2-[1-(2-phenylethyl)thio]-N-hydroxy-N-methyl-cinnamamide], at 5-lipoxygenase (setting [2]), the IC50 was 0.014 µM.

Consider `CN(O)C(=O)C=Cc1ccccc1SCCCCCC(F)(F)F` [Example 44, 2-[1-(5-trifluoromethylpentyl)thio]-N-hydroxy-N-methylcinnamamide], for which the IC50 in test [1] came to 0.017 µM; at 5-lipoxygenase (setting [2]) it was 0.031 µM.

For `CCCCCCCCSc1ccccc1C=CC(=O)N(C)O` [Example 38, 2-n-octylthio-N-hydroxy-N-methylcinnamamide], the IC50 is 0.011 µM in test [1] and 0.028 µM on 5-lipoxygenase (setting [2]).

In the case of `CN(O)C(=O)C=Cc1ccccc1SCCCCCCc1ccccc1` [Example 39, 2-[10(6-phenylhexyl)thio]-N-hydroxy-N-methylcinnamamide], the IC50 on 5-lipoxygenase (setting [2]) is 0.033 µM.

Take `CCCCc1cc(SC)ccc1C=CC(=O)N(C)O` [Example 8, 2-n-butyl-4-methylthio-N-hydroxy-N-methylcinnamamide]: the IC50 on 5-lipoxygenase (setting [2]) was determined as 0.023 µM.

Turning to `CSc1ccccc1C(=O)N(C)O` [reference compound], at 5-lipoxygenase (setting [3]), the IC50 turned out to be 44 µM.

In the case of `CN(O)C(=O)C=Cc1ccccc1SCC1CCCCC1` [Example 26, 2-cyclohexylmethylthio-N-hydroxy-N-methylcinnamamide], the IC50 at 5-lipoxygenase (setting [2]) turned out to be 0.014 µM.

For the molecule `CCCCSc1cc(C(F)(F)F)ccc1C=CC(=O)N(C)O` [Example 7, 2-n-butylthio-4-trifluoromethyl-N-hydroxy-N-methylcinnamamide], the IC50 at 5-lipoxygenase (setting [2]) came out at 0.024 µM.

Turning to `CN(O)C(=O)C=Cc1ccc(CCCc2ccccc2)cc1S(C)(=O)=O` [Example 16, 2-methylsulfonyl-4-(3-phenylpropyl)-N-hydroxy-N-methylcinnamamide], at 5-lipoxygenase (setting [2]), the IC50 came out at 0.074 µM.

With `CCCCS(=O)(=O)c1ccccc1C=CC(=O)N(C)O` [Example 34, 2-n-butylsulfonyl-N-hydroxy-N-methylcinnamamide], the IC50 at 5-lipoxygenase (setting [2]) was determined as 1.1 µM.

For `CSc1ccc(CCCc2ccccc2)cc1C(=O)N(C)O` [reference compound], the IC50 on 5-lipoxygenase (setting [3]) is 0.592 µM.

In the case of `CN(O)C(=O)C=Cc1ccccc1-c1ccccc1` [Example 24, 2-phenyl-N-hydroxy-N-methylcinnamamide], the IC50 at 5-lipoxygenase (setting [2]) came out at 0.131 µM.
